{
  "source": "patent US20070015279A1",
  "about": "“Methods of Selecting Pancreatic Endocrine Cells Using Protein Synthesis Inhibitors” (AmCyte Inc., priority 2005, published 2007)",
  "tested_on": "HD487B cells",
  "test": "Puromycin selection of HD487B cells, insulin mRNA by quantitative RT-PCR",
  "assay_type": "cell-based, human",
  "description": "In an attempt to see if other protein synthesis inhibitors have similar effect as hygromycin B on cultured pancreatic cells puromycin was used in a pilot experiment. We treated P0 cells from HD487B with puromycin at either 2.5 or 5 μg/mL concentrations in SM95/M7 (4:1) for overnight. The cells were recovered in the same medium without puromycin till reaching confluence and passaged to P1. P1 and P2 cells were cultured in SM95/M7 (9:1) with Wnt3a (20 ng/mL). P3 and P4 cells were cultured in SM95/M7 (4:1) with bFGF (50 ng/mL). P5 cells were cultured in maturation medium. We took portions of cells at each passages and analyzed insulin gene expression by quantitative RT-PCR and normalized to β-actin expression. Cells that survived puromycin treatment also expressed insulin at passages 1, 2, 3, 4, and 5.",
  "data": [
    {"smiles": "COc1ccc(C[C@H](N)C(=O)N[C@H]2[C@@H](O)[C@H](n3cnc4c(N(C)C)ncnc43)O[C@@H]2CO)cc1", "note": "[puromycin]", "values": [
      {"measurement": "Insulin expression (normalized to β-actin)", "setting": "HD487B P1, 2.5 μg/mL @ P0", "value": "3.96E−01"},
      {"measurement": "Insulin expression (normalized to β-actin)", "setting": "HD487B P1, 5 μg/mL @ P0", "value": "8.48E−02"},
      {"measurement": "Insulin expression (normalized to β-actin)", "setting": "HD487B P2, 2.5 μg/mL @ P0", "value": "1.39E−02"},
      {"measurement": "Insulin expression (normalized to β-actin)", "setting": "HD487B P2, 5 μg/mL @ P0", "value": "2.51E−02"},
      {"measurement": "Insulin expression (normalized to β-actin)", "setting": "HD487B P3, 2.5 μg/mL @ P0", "value": "9.89E−03"},
      {"measurement": "Insulin expression (normalized to β-actin)", "setting": "HD487B P3, 5 μg/mL @ P0", "value": "2.63E−02"},
      {"measurement": "Insulin expression (normalized to β-actin)", "setting": "HD487B P4, 2.5 μg/mL @ P0", "value": "3.46E−03"},
      {"measurement": "Insulin expression (normalized to β-actin)", "setting": "HD487B P5, 2.5 μg/mL @ P0", "value": "1.83E−03"}
    ]}
  ]
}
